Source: patent US7473698B2, “Secondary amino anilinic piperidines as MCH1 antagonists and uses thereof” (H. Lunbeck A/S, priority 2003, dated 2009)

Assays:
G4F-7 cells = settings: cited from earlier work
rat MCH-1 [1] = molecular target: T1, rat MCH-1 (Rattus norvegicus, UniProt P97639); assay: Radioligand binding assay at cloned rat MCH1 receptor, [3H]Compound A, Peakr293 cell membranes; design: expressed in transfected cells; host or cells: Human embryonic kidney Peak rapid 293 cells (Peakr293), transient, calcium phosphate; membranes; settings: 0.08 nM [3H]Compound A, 25° C., 90 minutes
T1 sequence (P97639 whole entry): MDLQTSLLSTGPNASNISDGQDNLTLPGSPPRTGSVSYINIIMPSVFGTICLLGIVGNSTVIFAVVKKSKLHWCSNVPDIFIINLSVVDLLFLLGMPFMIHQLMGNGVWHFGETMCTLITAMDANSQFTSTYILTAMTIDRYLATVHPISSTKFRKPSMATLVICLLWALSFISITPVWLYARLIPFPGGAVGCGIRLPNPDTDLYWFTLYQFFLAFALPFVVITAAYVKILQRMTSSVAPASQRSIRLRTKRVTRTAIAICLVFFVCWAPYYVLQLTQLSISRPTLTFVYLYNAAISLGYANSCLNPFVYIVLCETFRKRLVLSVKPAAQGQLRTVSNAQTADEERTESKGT
Protocol: For binding assays, pellets of transfected cells are suspended in ice-cold buffer (20 mM Tris.HCl, 5 mM EDTA, pH 7.4) and homogenized by sonication for 7 sec. The cell lysates are centrifuged at 200×g for 5 min at 4° C. The supernatants are then centrifuged at 40,000×g for 20 min at 4° C. The resulting pellets are washed once in the homogenization buffer and suspended in binding buffer (see methods for radioligand binding). Protein concentrations are determined by the method of Bradford (1976) using bovine serum albumin as the standard. Binding assays are usually performed immediately, however it is possible to prepare membranes in batch and store frozen in liquid nitrogen for future use.
Radioligand binding assays for the rat MCH1 receptor were carried out using plasmid pcDNA3.1-rMCH1-f (ATCC Patent Deposit Designation No. PTA-3505). Plasmid pcDNA3.1-rMCH1-f comprises the regulatory elements necessary for expression of DNA in a mammalian cell operatively linked to DNA encoding the rat MCH1 receptor so as to permit expression thereof. Plasmid pcDNA3.1-rMCH1-f was deposited on Jul. 5, 2001, with the American Type Culture Collection (ATCC), 12301 Parklawn Drive, Rockville, Md. 20852, U.S.A. under the provisions of the Budapest Treaty for the International Recognition of the Deposit of Microorganisms for the Purposes of Patent Procedure and was accorded ATCC Patent Deposit Designation No. PTA-3505.
Human embryonic kidney Peak rapid 293 cells (Peakr293 cells) were transiently transfected with DNA encoding the MCH1 receptor utilizing the calcium phosphate method and cell membranes were prepared as described above. Binding experiments with membranes from Peakr293 cells transfected with the rat MCH1 receptor were performed with 0.08 nM [^3H]Compound A (custom labeled by Amersham) (the synthesis of Compound A is described in detail below) using an incubation buffer consisting of 50 mM Tris pH 7.4, 10 mM MgCl2, 0.16 mM PMSF, 1 mM 1,10 phenantroline and 0.2% BSA. Binding was performed at 25° C. for 90 minutes. Incubations were terminated by rapid vacuum filtration over GF/C glass fiber filters, presoaked in 5% PEI using […] Tris pH 7.4 as wash buffer. In all experiments, nonspecific binding is defined using […] Compound A.
The compounds described above were assayed using cloned rat MCH1.

rat MCH-1 [2] = molecular target: T1, rat MCH-1; settings: one range printed for rat and human; cited from earlier work
MCH-1 receptor = MCH-1 receptor (Rattus norvegicus, UniProt P97639); settings: in vivo; cited from earlier work
Chain of MCH-1 receptor (P97639 whole entry): as above

human MCH-1 = human MCH-1 (Homo sapiens, UniProt Q99705); settings: one range printed for rat and human; cited from earlier work
Chain of human MCH-1 (Q99705 whole entry): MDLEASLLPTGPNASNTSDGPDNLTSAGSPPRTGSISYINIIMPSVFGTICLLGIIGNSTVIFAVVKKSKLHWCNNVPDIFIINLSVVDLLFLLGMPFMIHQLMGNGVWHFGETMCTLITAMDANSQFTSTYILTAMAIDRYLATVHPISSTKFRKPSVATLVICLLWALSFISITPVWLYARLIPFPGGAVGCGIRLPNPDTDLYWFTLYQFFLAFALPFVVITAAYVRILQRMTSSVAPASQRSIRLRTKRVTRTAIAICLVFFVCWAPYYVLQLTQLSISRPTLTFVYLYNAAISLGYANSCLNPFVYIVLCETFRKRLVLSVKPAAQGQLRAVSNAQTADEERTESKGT

Ki (rat MCH-1 [1])	Compound	further results
	native MCH: Melanin-concentrating hormone, a cyclic peptide	Ki (G4F-7 cells; inhibition of radioiodinated [Phe13,Tyr19]-MCH binding): 12 nM
33.8 nM	O=C(CCc1ccc(Oc2ccc(F)c(F)c2)cc1)Nc1cc(C2CCNCC2)ccc1F [Example 12, 3-[4-(3,4-Difluorophenoxy)Phenyl]-N-[2-Fluoro-5-(4-Piperidinyl)Phenyl]Propanamide]	
	[Phe^13,Tyr^19]-MCH	Kd (G4F-7 cells; radioiodinated ligand, G4F-7 cells): 0.118 nM
	CN(C)CC1CCc2cc(NC(=O)c3ccc(-c4ccc(F)cc4)cc3)ccc2C1 (centres unmarked) [Example T-226296]	affinity for the MCH-1 receptor (rat MCH-1 [2]): 5 to 9 nM; food intake induced by the intracerebroventricular application of MCH (MCH-1 receptor): inhibit food intake; affinity for the MCH-1 receptor (human MCH-1): 5 to 9 nM
142 nM	COC(=O)C1=C(C)NC(=O)N(C(=O)NCCCC(=O)Nc2cccc(C3CCNCC3)c2)C1c1ccc(F)cc1 (centres unmarked) [Example 7, Methyl 4-(4-Fluorophenyl)-6-Methyl-2-Oxo-3-[({4-OXO-4-[3-(4-Piperidinyl)Anilino]Butyl}Amino)Carbonyl]-1,2,3,4-Tetrahydro-5-Pyrimidinecarboxylate]	
46.6 nM	COc1ccccc1CCCCC(=O)Nc1cc(C2CCNCC2)c(F)cc1F [Example 11, N-[2,4-Difluoro-5-(4-Piperidinyl)Phenyl]-5-(2-Methoxyphenyl)Pentanamide]	
	α-MSH	inhibition of binding (G4F-7 cells; inhibition of radioiodinated [Phe13,Tyr19]-MCH binding, in words): not inhibited
20.9 nM	COc1ccccc1CCCCC(=O)Nc1cc(C2CCNCC2)ccc1F [Example 10, N-[2-Fluoro-5-(4-Piperidinyl)Phenyl]-5-(2-Methoxyphenyl)Pentanamide]	
476 nM	COc1ccc(CCCCC(=O)Nc2cccc(C3CCNCC3)c2)cc1 [Example 5, 5-(4-Methoxyphenyl)-N-[3-(4-Piperidinyl)Phenyl]Pentanamide]	
353 nM	O=C(Nc1cccc(C2CCNCC2)c1)c1cccnc1Oc1ccccc1 [Example 4, 2-Phenoxy-N-[3-(4-Piperidinyl) Phenyl]Nicotinamide]	
313 nM	O=C(CCCCC(=O)c1ccccc1)Nc1cc(C2CCNCC2)ccc1F [Example 9, N-[2-Fluoro-5-(4-Piperidinyl) Phenyl]-6-Oxo-6-Phenylhexanamide]	
438 nM	O=C(CCCCCNc1ccc(F)c(F)c1)Nc1cccc(C2CCNCC2)c1 [Example 6, 6-(3,4-Difluoroanilino)-N-[3-(4-Piperidinyl) Phenyl]Hexanamide]	
1100 nM	O=C(CCCCC(=O)c1ccccc1)Nc1cccc(C2CCNCC2)c1 [Example 3, 6-Oxo-6-Phenyl-N-[3-(4-Piperidinyl)Phenyl]Hexanamide]	
79.6 nM	COc1ccccc1CCCCC(=O)Nc1cccc(C2CCNCC2)c1 [Example 1, 5-(2-Methoxyphenyl)-N-[3-(4-Piperidinyl)Phenyl]Pentanamide]	
197 nM	O=C(CCCCc1ccccc1)Nc1cccc(C2CCNCC2)c1 [Example 2, 5-Phenyl-N-[3-(4-Piperidinyl)Phenyl]Pentanamide]	
